Measured values as given in patent US20220144853A1, “IMIDAZOLINE DERIVATIVES AS CXCR4 MODULATORS” (Université de Paris, priority 2019, published 2022).
Where a name gives a salt, the structure may show the parent alone.

Tests used:
[1] = test system: IL-10; test: Cytokine production by R848-activated PBMCs, LEGENDplex Human Inflammation panel 1: IL-10; format: cell-based; details: PBMCs from 2 healthy donors, R848 overnight
Procedure: (§1) 2) The PBMCs used herein were prepared as described in part A “immune cells preparation”, section 2) above. PBMCs were seeded at 4.10^6/mL. […] Cells were then stimulated with the TLR7/8 agonist resiquimod—R848 (Sigma-Aldrich, MO, USA) at 5 μg/mL.
(§2) Cytokine expression levels were assessed using LEGENDplex Human inflammation panel 1 Kit (BioLegend, California, USA), which is a bead-based multiplex assay, using fluorescence-encoded beads. […] First, supernatants of R848-stimulated PBMCs were harvested after 24 h of stimulation and frozen at −20° C. for storage. Supernatants were dispensed into a 96-well V-bottom plate. Protocol pursued as per manufacturer recommendations (Manual for BioLegend LEGENDplex, Multi-Analyte Flow Assay Kit, Human Inflammation Panel 1, version 750000393_R01).

[2] = test system: IL-1β; test: Cytokine production by R848-activated PBMCs, LEGENDplex Human Inflammation panel 1: IL-1β; format: cell-based; details: PBMCs from 2 healthy donors, R848 overnight, read-out: IC50 (μM) 1L-1β
Procedure: as §1, §2

[3] = test system: IL-12p70; test: Cytokine production by R848-activated PBMCs, LEGENDplex Human Inflammation panel 1: IL-12p70; format: cell-based; details: PBMCs from 2 healthy donors, R848 overnight
Procedure: as §1, §2

[4] = test system: IFN production by activated PBMCs; test: IFN production by R848-activated PBMCs from healthy donors, twINNE reporter cell line; format: cell-based, human; details: means of two results over 2 healthy donors, R848 5 μg/mL, IT1t: mean over all experiments, read-out: IC50 of anti-inflammatory activity (IFN production)
Outline: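 Human PBMCs (4.10^6/mL, RPMI/10% FBS, 37° C) stimulated with R848 at 5 μg/mL; supernatants collected after 24 h. Functional IFN measured on twINNE cells (ISRE-driven luciferase reporter) after 24 h culture by bioluminescence; IC50 from variable-slope dose-response fits.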

[5] = test system: IL-18; test: Cytokine production by R848-activated PBMCs, LEGENDplex Human Inflammation panel 1: IL-18; format: cell-based; details: PBMCs from 2 healthy donors, R848 overnight
Procedure: as §1, §2

[6] = test system: MCP-1, IL-6, IL-8 and IL-33; test: Cytokine production by R848-activated PBMCs, LEGENDplex: other inflammatory cytokines; format: cell-based, human; details: PBMCs from two healthy donors; R848 5 μg/mL
Procedure: as §1, §2

[7] = test system: IL-23; test: Cytokine production by R848-activated PBMCs, LEGENDplex Human Inflammation panel 1: IL-23; format: cell-based; details: PBMCs from 2 healthy donors, R848 overnight
Procedure: as §1, §2

[8] = test system: IFN-γ; test: Cytokine production by R848-activated PBMCs, LEGENDplex Human Inflammation panel 1: IFN-γ; format: cell-based; details: PBMCs from 2 healthy donors, R848 overnight
Procedure: as §1, §2

[9] = test system: TNF-α; test: Cytokine production by R848-activated PBMCs, LEGENDplex Human Inflammation panel 1: TNF-α; format: cell-based; details: PBMCs from 2 healthy donors, R848 overnight
Procedure: as §1, §2

[10] = test system: IFN production by activated immune cells (PBMC); test: IFN production by R848-activated PBMC from healthy donors, STING-37 reporter cell line; format: cell-based, human; details: different concentrations, R848, STING-37 reporter, FIG. 1
Procedure: 1) The blood from healthy donors was obtained from two sources. Either from “Etablissement Français du Sang” (convention #07/CABANEL/106), Paris, France or from the Apheresis and Blood Donation Unit at the Institute of Transfusion Medicine and Immunogenetics (IKT), Ulm, Germany after being approved by the Institutional Review Board at Ulm University.
(§3) In vitro experiments were performed using human peripheral blood mononuclear cells (PBMCs) isolated by density centrifugation from peripheral blood leukocyte separation medium (Cambrex, Gaithersburg, Md.).
(§4) PBMCs were cultured in RPMI 1640 (Invitrogen, Gaithersburg, Md.) (R10) containing 10% heat-inactivated fetal bovine serum, 100 U/mL Penicilium and 100 μg/mL Streptomycin (1% Pen-Strep) and 1 mM glutamine (Hyclone, Logan, Utah).
1) The PBMCs used herein were prepared as described in part A “immune cells preparation”, section 1) above. PBMCs were seeded at 2.10^6/mL. […]
(§5) 1) To quantify the secretion of functional IFN, a biological assay based on a stable cell line where luciferase reporter gene is controlled by five Interferon-Stimulated Response Elements (STING37 cell line) was used. […] After 24 h of culture, luciferase activity was determined by adding 50 μL of Bright-Glo reagents (Promega) to culture wells and measuring bioluminescence with a luminometer.

[11] = test system: TNFα production by monocytes (CD14+ cells); test: TNFα production by monocytes from juvenile dermatomyositis patients, intracellular staining by flow cytometry; format: cell-based, human; details: PBMCs from 2 juvenile dermatomyositis patients; R848 overnight; FIG. 3
Procedure: (§6) Material from Juvenile Dermatomyositis and Lupus patients were obtained from Necker Hospital, Paris, France or from Imagine Institute, Paris, France. The study was approved by the Conité des Protection des Personnes (ID-RCB/EUDRACT: 2014-A01017-40 and 2018-A01358-47) in France.
as §3
(§7) 1) The PBMCs used herein were prepared as described in part A “immune cells preparation”, section 1) above. PBMCs were seeded at 2.10^6/mL. […] Cells were then stimulated with the TLR7/8 agonist resiquimod—R848 (Invivogen) at 5 μg/mL. When stated, AMD (20 μM) (Sigma-Aldrich, MO, USA) was added to the cells 1 h before incubation with example 1.
R848-stimulated PBMCs were washed in PBS and then incubated with a viability stain (Zombie-Aqua, Biolegend) for 30 min at 4° C. After washing, the cells were resuspended in PBS containing 2% FCS and 2 mM EDTA and stained with the extracellular mix using APC-anti-BDCA4 (clone 12C2), FITC-anti-CD123 (clone 6H6), PerCP.cy5.5-anti-CD56 (clone 5.1H11), BV421-anti-HLADR (clone L243), PE.cy7-anti-CD19 (clone 4G7), APC-cy.7-anti-CD14 (clone M5E2) all from Biolegend and used at 1/200 and V500-anti-CD3 (BD Bioscience, clone SP34-2, 1/200). […]

[12] = test system: TNFα production by monocytes (CD14+ cells); test: Requirement of CXCR4 (siRNA knockdown or AMD3100) for the effect on TNFα production by monocytes from healthy donors; format: cell-based, human
Procedure: Monocytes were purified from PBMCs by positive selection with the CD14 microbeads (Miltenyi Biotec) and MACS column.
as §7
Isolated monocytes were seeded at 10^5 cells/100 μL in 96-well plates and incubated at 37° C. Cyclophilin B (control) and CXCR4 small interfering RNA (siRNA) (Smart Pool, Dharmarcon) was diluted in DOTAP (Roche Applied Sciences). The mix was gently mixed and incubated at room temperature for 15 minutes. After incubation, the mix was added to cells in culture at a final concentration of 160 nM. Finally, cells were incubated at 37° C. for 24 hours before stimulation.
R848-stimulated PBMCs were washed in PBS and then incubated with a viability stain (Zombie-Aqua, Biolegend) for 30 min at 4° C. After washing, the cells were resuspended in PBS containing 2% FCS and 2 mM EDTA and stained with the extracellular mix using APC-anti-BDCA4 (clone 12C2), FITC-anti-CD123 (clone 6H6), PerCP.cy5.5-anti-CD56 (clone 5.1H11), BV421-anti-HLADR (clone L243), PE.cy7-anti-CD19 (clone 4G7), APC-cy.7-anti-CD14 (clone M5E2) all from Biolegend and used at 1/200 and V500-anti-CD3 (BD Bioscience, clone SP34-2, 1/200). For the TNFα intracellular staining a Fixation/Permeabilization Solution Kit (BD Cytofix/Cytoperm) was used according to the manufacturer's protocol. Briefly, the cells were fixed for 10 min at 4° C. with 100 μL of the Fixation/Permeabilization solution then washed and stained in 100 μL of the BD Perm/Wash Buffer containing TNFα-APC (Miltenyi, 1/500) antibody for 1 h at 4° C. Data acquisition was performed on a Canto II flow cytometer using Diva software (BD Biosciences, San Jose, Calif.). FlowJo software (Treestar, Ashland, Oreg.) was used to analyze data.

[13] = test system: IFN production by activated immune cells (PBMC) from lupus patients; test: IFN production by R848-activated PBMC from lupus patients, STING-37 reporter cell line; format: cell-based, human; details: 10 μM, PBMC from three SLE patients, FIG. 2
Procedure: as §6, §3, §4
1) The PBMCs used herein were prepared as described in part A “immune cells preparation”, section 1) above. PBMCs were seeded at 2.10^6/mL. […] Cells were then stimulated with the TLR7/8 agonist resiquimod—R848 (Invivogen) at 5 μg/mL. […]
as §5

[14] = target: T1, human CXCR4 (hCXCR4) receptor (Homo sapiens, UniProt P61073); test: BRET assay of antagonist activity on the CXCR4-CXCL12 signaling pathway in transfected HEK-293 T cells; format: cell-based; details: Gαi1, Gαi2, Gαi3, GαoB or Gαz, EC80 CXCL12, FIG. 6
T1 construct: expressed in transfected cells; host or cells: HEK-293 T cells, transient co-transfection with polyethylenimine
T1 sequence (P61073 whole entry): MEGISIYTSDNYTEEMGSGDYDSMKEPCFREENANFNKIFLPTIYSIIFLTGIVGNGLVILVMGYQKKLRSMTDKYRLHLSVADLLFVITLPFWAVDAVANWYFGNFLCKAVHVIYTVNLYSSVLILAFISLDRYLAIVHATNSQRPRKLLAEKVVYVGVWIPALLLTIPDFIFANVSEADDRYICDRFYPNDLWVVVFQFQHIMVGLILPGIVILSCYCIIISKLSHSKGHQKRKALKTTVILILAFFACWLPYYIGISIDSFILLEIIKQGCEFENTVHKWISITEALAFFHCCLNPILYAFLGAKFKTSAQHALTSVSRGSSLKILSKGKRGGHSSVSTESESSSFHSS
Procedure: Examples of the present invention were tested for their antagonist activity on human CXCR4 (hCXCR4) receptor transiently over-expressed in HEK-293 T cells. Compounds exert antagonist activity if they decrease the action of CXCL12 on the receptor.
HEK-293 T cells are maintained in Dulbecco's Modified Eagle's Medium supplemented with 10% Foetal Calf Serum, 1% Penicillin/Streptomycin at 37° C./5% CO2. […] After transfection, cells are cultured for 48 h at 37° C./5% CO2.
On the day of the assay, cells are detached using trypsin 0.05%, resuspended in assay buffer (1.8 mM CaCl2, 1 mM MgCl2, 2.7 mM KCl, 137 mM NaCl, 0.4 mM NaH2PO4, 5.5 mM D-Glucose, 11.9 mM NaHCO3, 25 mM Hepes) and seeded in 384 well plate at a density of 20,000 cells per well.
Cells are first incubated for 10 minutes with the compound alone. Then, cells are stimulated by an EC80 CXCL12 concentration for additional 10 minutes and luminescence is recorded. […] Antagonist activity is evaluated in comparison to basal signals evoked by EC80 CXCL12 alone.
For IC50 determination, a dose-response test is performed using 20 concentrations (ranging over 6 logs) of each compound. Dose-response curves are fitted using the sigmoidal dose-response (variable slope) analysis in GraphPad Prism software (GraphPad Software) and IC50 of antagonist activity is calculated. […]

With CC1(C)CN2C(CSC(=NC3CCCCC3)NC3CCCCC3)=CSC2=N1 [IT1t, reference compound] the IC50 [1] was 20 µM, the IC50 [2] was 38 µM and the IC50 [3] was 16 µM. For the same molecule, the IC50 [4] was 31 µM, the IC50 [5] was 9.7 µM and the “inhibition on other inflammatory cytokines such as MCP-1, IL-6, IL-8 and IL-33” value [6] was “no or poor inhibition”. It also gave an IC50 [7] of 14 µM, an IC50 [8] of 24 µM and an IC50 [9] of 48 µM.
In the case of CC1(C)CN2C(CSC3=NC4CCCCC4N3)=CSC2=N1 (stereo not drawn) [Example 1, 3-(((3a,4,5,6,7,7a-hexahydro-1H-benzo[d]imidazol-2-yl)thio)methyl)-6,6-dimethyl-5,6-dihydroimidazo[2,1-b]thiazole dihydrochloride], the “reduction of IFN production by activated PBMCs” value [10] is reported as 100%, the “TNF-α production in CD14+ monocytes” value [11] is reported as “strongly inhibited” and the “TNFα production by activated monocytes in the presence of the example after pre-incubation with AMD3100” value ([12]; AMD3100 20 μM 1 h, example 1 5 μM or example 2 1 μM, R848, FIG. 5B) is reported as “restored”. The “TNFα production by activated monocytes in the presence of the example after CXCR4 siRNA” value ([12]; siCXCR4 160 nM 24 h, example 1 5 μM, R848, FIG. 5A) was “restored”, the “IFN production by activated PBMCs” value [13] was “level similar to the one of unstimulated negative controls” and the “antagonist activity: recruitment of G proteins induced by the hCXCR4-CXCL12 interaction” value [14] was “significantly lower than IT1t”.
